Where no end group is shown, it is not given here.
Key:
[1] = system: healed wound erythema, melanin pigmentation; assay: Clinical effects of TB4 in vivo (erythema, pigmentation)
From the text: There was not post-inflammatory erythema and hyperpigmentation. Frequently, the skin color was normal and not the expected deep red-purple with brown coloration that would take months to resolve on the leg.
Another effect seen is the reduction of melanin pigmentation on the areas of treatment with TB4.

[2] = system: NHVEC; assay: scratch wound closure assay; type: cell-based, human; conditions: 10 ng/ml, scratched confluent monolayer
Procedure: To examine the effects of TB4 and TA1 (10 ng/ml) on NHVEC migration, a scratch would closure assay was used.

[3] = system: ulcerations of fingers secondary to burns, diabetes mellitus; assay: Clinical course of Patient 2, finger ulcerations; type: in vivo, human
Procedure: The glucose levels of the patient were not kept under control. The patient developed heat burns with blistering and erosions on the patient's fingers. The ulcers are cleansed and Silvadene cream is used for wound healing, which usually takes 2-4 weeks. Occasionally, systematic antibiotics are given.
The patient was seen after having burned the distal phalanx of the left middle finger with a hairdryer 10 days before. The patient had taken some leftover Ceftin 250 mg twice daily and has used Silvadene cream twice daily for the 10 days, but the ulcer would not heal. The ulcer was debrided and the patient was given a preparation containing TA5 to use on the ulcer base twice daily. This ulcer was on the lateral thenar side of the left middle finger.
Approximately six weeks later, the patient had developed new ulcerations of the right index finger on the palmar-ventral side (5 days), and two ulcerations on the right middle finger on the distal digit, lateral thenar side (5 days) and the second digit on the dorsal side (2 weeks history). These ulcerations had developed after the patient had handled hot items. Dicloxacillin (500 mg twice daily) was given for 10 days. The patient was given TB4 wound healing preparation to be used twice daily to the ulcerations.

[4] = system: normal human vascular endothelial cells (NHVEC); assay: Boyden chamber migration assay; type: cell-based; conditions: for cell migration over migration in the presence of media alone / migration response compared to positive controls VEGF, PDGF, FGF: 100 ng/ml; for concentration of maximal effect on migration: dose response
Procedure: The effects of TB4 and TA1 on endothelial cell migration were determined. To investigate the possibility that these peptides effect the migration of normal human vascular endothelial cells (NHVEC) in vitro, a Boyden chamber migration assay was performed.
In the experiments of Table 1 and FIG. 1, normal human […] endothelial cells are used at 5×10^4 cells per well. The wells are coated with 100 μg/ml […] Type IV.

[5] = system: endothelial cells; assay: MTT (tetrazolium) endothelial cell proliferation assay; type: cell-based; conditions: 10 ng/ml; 4 hours and 24 hours
Procedure: The effects of TB4 and TA1 on endothelial cell proliferation were determined using a MTT (tetrazolium) assay. The results are shown in FIG. 2 for 4 hours and 24 hours and for three concentrations of these peptides, 10 ng/ml, 100 ng/ml, and 1000 ng/ml. […] At a concentration of 10 ng/ml, TB4 and TA1 maximally stimulated cell proliferation approximately 2-fold and 3-fold over that of the control, respectively.

[6] = system: venous stasis ulceration; assay: Clinical course of Patient 1, shin ulcer; type: in vivo, human
From the text: The injury started with a bruise on the left shin, but approximately seven weeks later the area started to get erythematous. The patient was sent by the general internist to the local hospital wound healing center, where the wound was debrided and Silvadene cream was used. However, the patient was not progressing well and grafting was considered. […] The underlying problem was venous stasis with the development of ulceration secondary to minor trauma. The ulcer was about 3.0 cm by 1.0 cm in size with a 1-cm rim of mild erythema. […] The patient was given a preparation containing TA1 to be used twice daily to the small 4 mm area.
The treatment with TA1 was continued for another week twice daily.
At this point, treatment was changed to a preparation containing TB4 to be applied twice daily to the entire ulcer.
After the entire ulcer had been treated for seven days with TB4 twice daily, it was noted that the size of the ulcer was starting to reduce. The wound center physician was concerned about infection (cellulitis around the ulcer). The patient was placed on oral antibiotics for 10 days. However, when the surrounding erythema was palpated, there was no tenderness. The wound appeared to be repairing and increasing the vascular flow to the ulcer base and surrounding skin. The patient felt that after treating the entire for seven days they improved by 40%. The patient was given more preparation containing TB4 for the next week. The internist felt that the patient should not undergo surgery for grafting due to cardiac problems in view of the improvement in the wound.

[7] = system: full thickness punch wounds in rat skin; assay: Wound healing in vivo, full thickness punch wounds
Procedure: To study the effect of TA1 on wound healing in vivo, full thickness punch wounds were made in rat skin and treated with TA1 topically or by intraperitoneal injection with a seven-day study interval. For topical treatment, 5 μg of TA1 was applied in 50 μl saline on injury date and 48 hours post-injury. For intraperitoneal treatment, 60 μg of TA1 was administered in 300 μl saline on injury date and then every other day.

[8] = system: chronic wounds; assay: Pilot study in humans with chronic wounds, collagen synthesis; type: in vivo, human; conditions: 20 volunteers, biopsies at baseline and two months, preliminary results
Procedure: A pilot study of TA1 and TA5 was performed in humans with 20 volunteers with chronic wounds. Skin biopsies were taken at the baseline and at two months, subjected to histological analysis, immunohistological analysis, and objective and subjective observation. Immunohistochemistry endpoints were epidermal differentiation, epidermal proliferation, and markers of inflammation and were assayed by using anti-CD3 monoclonal antibody.

[9] = Isoelectric point of peptide; type: physicochemical
[10] = 10 μg/ml, 5×10^4 cells per well

Ac-ANKGQAPGEAMKPSFLKEKKEVVERSKEEEGPAKMNLVIEMPKD (Ac-ANKGQAPGEAMKPSFLKEKKEVVERSKEEEGPAKMNLVIEMPKD) [TB4]
clinical intensity of brown melasma, lentigines, post-inflammatory hyperpigmentation and ephelides ([1]; areas of treatment): definite reduction in the clinical intensity
effect on erythema of the healed wound ([1]; e.g. on the shin): reducing the erythema of the healed wound
erythema of poikiloderma vasculare of the neck secondary to chronic sun exposure ([1]; evaluation not continued): erythema was reducing
migration of cells into the wounded area compared to media alone [2]: significantly increased
ulcers cleared ([3]; another five days (12 days)): approximately 90%
improvement in the ulcerations ([3]; one week, twice daily, dicloxacillin also given): 70-80%
Cell Number per HPF, Chamber 1 ([4]; 0.1 μg/ml): 18 per HPF
Cell Number per HPF, Chamber 2 ([4]; 0.1 μg/ml): 12 per HPF
Cell Number per HPF, Chamber 3 ([4]; 0.1 μg/ml): 26 per HPF
Cell Number per HPF, Mean ([4]; 0.1 μg/ml): 19 per HPF
cell migration over migration in the presence of media alone [4]: significantly enhanced cell migration
migration response compared to positive controls VEGF, PDGF, FGF [4]: heightened responses
Cell Number per HPF, Chamber 1 ([4]; 0.5 μg/ml): 33 per HPF
Cell Number per HPF, Chamber 2 ([4]; 0.5 μg/ml): 39 per HPF
Cell Number per HPF, Chamber 3 ([4]; 0.5 μg/ml): 50 per HPF
Cell Number per HPF, Mean ([4]; 0.5 μg/ml): 41 per HPF
Cell Number per HPF, Chamber 1 ([4]; 1 μg/ml): 45 per HPF
Cell Number per HPF, Chamber 2 ([4]; 1 μg/ml): 47 per HPF
Cell Number per HPF, Chamber 3 ([4]; 1 μg/ml): 63 per HPF
Cell Number per HPF, Mean ([4]; 1 μg/ml): 52 per HPF
Cell Number per HPF, Chamber 1 ([4]; 5 μg/ml): 55 per HPF
Cell Number per HPF, Chamber 2 ([4]; 5 μg/ml): 65 per HPF
Cell Number per HPF, Chamber 3 ([4]; 5 μg/ml): 57 per HPF
Cell Number per HPF, Mean ([4]; 5 μg/ml): 59 per HPF
Cell Number per HPF, Chamber 2 ([4]; 10 μg/ml): 77 per HPF
Cell Number per HPF, Chamber 3 ([4]; 10 μg/ml): 66 per HPF
Cell Number per HPF, Mean ([4]; 10 μg/ml): 71 per HPF
Cell Number per HPF, Chamber 1 [4, 10]: 70 per HPF
concentration of maximal effect on migration [4]: 100 ng/mL
maximal stimulation of cell proliferation over that of the control [5]: approximately 2 fold
size of the ulcer ([6]; after another seven days (14 days), peripheral islands of healing): size of the ulcer was the same
improvement felt by the patient ([6]; after treating entire ulcer for seven days): 40%
status of ulcer ([6]; another seven days after FIG. 11): almost completely closed
status of ulcer ([6]; another two weeks, once daily, FIG. 12): no ulceration

Ac-SDAAVDTSSEITTKDLKEKKEVVEEAEN [TA1]
4-day post-injury findings: capillary ingrowth and collagen deposition ([7]; 4-day post-injury): increased capillary ingrowth and collagen deposition
4-day post-injury findings: reepithelialization, wound contraction, keratinocyte migration ([7]; 4-day post-injury): accelerated reepithelialization, wound contraction, and keratinocyte migration
decrease in wound width versus normal saline control ([7]; intraperitoneal 60 μg, p 0.0001 four-day, p 0.08 seven-day): 42%±9%
decrease in gap size versus normal saline (NS) control ([7]; intraperitoneal 60 μg, p 0.0007 for four-day and seven-day results): 42%±9%
decrease in wound width versus normal saline (NS) control ([7]; topical 5 μg, p 0.0001 four and seven-day results): 15%
decrease in gap size versus normal saline (NS) control ([7]; topical 5 μg, significant for seven-day results (p 0.04)): 18%±12%
stimulating collagen synthesis compared with tretinoin and vitamin C [8]: more effective in stimulating collagen synthesis than tretinoin or vitamin C
isoelectric point [9]: 4.1
migration of cells into the wounded area compared to media alone [2]: significantly increased
Cell Number per HPF, Chamber 1 ([4]; 0.1 μg/ml): 38 per HPF
Cell Number per HPF, Chamber 2 ([4]; 0.1 μg/ml): 45 per HPF
Cell Number per HPF, Chamber 3 ([4]; 0.1 μg/ml): 33 per HPF
Cell Number per HPF, Mean ([4]; 0.1 μg/ml): 39 per HPF
cell migration over migration in the presence of media alone [4]: significantly enhanced cell migration
migration response compared to positive controls VEGF, PDGF, FGF [4]: heightened responses
Cell Number per HPF, Chamber 1 ([4]; 0.5 μg/ml): 52 per HPF
Cell Number per HPF, Chamber 2 ([4]; 0.5 μg/ml): 53 per HPF
Cell Number per HPF, Chamber 3 ([4]; 0.5 μg/ml): 57 per HPF
Cell Number per HPF, Mean ([4]; 0.5 μg/ml): 54 per HPF
Cell Number per HPF, Chamber 1 ([4]; 1 μg/ml): 64 per HPF
Cell Number per HPF, Chamber 2 ([4]; 1 μg/ml): 69 per HPF
Cell Number per HPF, Chamber 3 ([4]; 1 μg/ml): 43 per HPF
Cell Number per HPF, Mean ([4]; 1 μg/ml): 59 per HPF
Cell Number per HPF, Chamber 1 ([4]; 5 μg/ml): 35 per HPF
Cell Number per HPF, Chamber 2 ([4]; 5 μg/ml): 64 per HPF
Cell Number per HPF, Chamber 3 ([4]; 5 μg/ml): 72 per HPF
Cell Number per HPF, Mean ([4]; 5 μg/ml): 57 per HPF
Cell Number per HPF, Chamber 2 ([4]; 10 μg/ml): 55 per HPF
Cell Number per HPF, Chamber 3 ([4]; 10 μg/ml): 66 per HPF
Cell Number per HPF, Mean ([4]; 10 μg/ml): 57 per HPF
Cell Number per HPF, Chamber 1 [4, 10]: 51 per HPF
concentration of maximal effect on migration [4]: 100 ng/mL
maximal stimulation of cell proliferation over that of the control [5]: ~3 fold
status of ulcer ([6]; after 1 week, twice daily to the small 4 mm area): improvement was noted
deeper 4 mm area of the ulceration ([6]; after 2 weeks, twice daily): now level with the rest of the ulcer

KKLKKEENPLELKEKLKEKKNPLPSKEEEKASPFDKI -T-E-T-P-D-M-S [TA5]
stimulating collagen synthesis compared with tretinoin and vitamin C [8]: more effective in stimulating collagen synthesis than tretinoin or vitamin C
new shallow ulceration resolved ([3]; one week, twice daily): approximately 70%
status of ulcer, left middle finger ([3]; one week, twice daily on ulcer base): dramatic improvement of the ulcer base
older, deeper ulceration healing ([3]; two weeks, twice daily): healing more rapidly than previously

VEGF [reference compound]
Cell Number per HPF, Chamber 1 ([4]; 10 ng/ml, positive control): 88 per HPF
Cell Number per HPF, Chamber 2 ([4]; 10 ng/ml, positive control): 95 per HPF
Cell Number per HPF, Chamber 3 ([4]; 10 ng/ml, positive control): 97 per HPF
Cell Number per HPF, Mean ([4]; 10 ng/ml, positive control): 93 per HPF

— patent US6767891B2, “Peptides with wound healing activity” (priority 2000, dated 2004)
